The nature of this data set: Decomposition temperature by differential scanning calorimetry. The format is physicochemical. The note with it: DSC, onset of decrease in slope of temperature-heat flow curve; unit not given (scans in ° C.). Here is the method:
A dual cell Perkin Elmer differential scanning calorimeter (PE DSC 7, Norwalk, Conn.) was used to determine the thermal transitions of the compounds. All scans were carried out from 30° C. to 200° C. at a heating and cooling rate of 10° C./minute and 40° C./min, respectively, except for 1-(3-methoxybenzyl)-3-(1-propenyl) thiourea, for which the scans were carried out from 0° C. to 200° C. at a heating rate of 10° C./min, and 1-(3-methoxybenzyl)-3-octadecyl thiourea, for which both the heating and cooling rates were 10° C./min. 1,3-di(3-methoxybenzyl) thiourea and 1-(3-methoxybenzyl)-3-dodecyl thiourea were heated to 300° C., and 1-(3-methoxybenzyl)-3-(4-methoxybenzoyl) thiourea was heated to 250° C. to determine the decomposition temperature. The decomposition temperature was taken as the onset of a decrease in the slope of the temperature-heat flow DSC curve. The first heating curve was recorded in all cases, and liquid nitrogen was used to quench the samples after the first heating.
For orientation: Differential scanning calorimetry records heat flow against a reference as temperature is scanned.

The record followed here is patent US7169815B2, “3-methoxybenzyl thiourea derivatives and improved lipid compositions containing same” (The United States of America as represented by the …, priority 2000, dated 2007).

`COc1cccc(CNC(=S)NCc2cccc(OC)c2)c1` [1,3-di(3-methoxybenzyl) thiourea] displayed a Decomposition Temperature of 265 °C.
